From patent US8536168B2 (Novartis AG, priority 2007, dated 2013)
Like-named read-outs stand apart in the source and are kept apart here.

Assays:
[1] = target: mouse Smoothened receptor (Mus musculus, UniProt P56726); experiment: Smo binding assay, displacement of radio-labeled smoothened agonist, filter binding format (mouse); conditions: displacement of small molecule agonist of Smoothened, read-out: Mouse Smo bdg., IC50
Text: A Smo binding assay was developed using radio-labeled smoothened agonist for compound competition.

[2] = target: human Smoothened receptor (Homo sapiens, UniProt Q99835); experiment: Smo binding assay, displacement of radio-labeled smoothened agonist, filter binding format (human); conditions: displacement of small molecule agonist of Smoothened, read-out: Human Smo bdg., IC50
Chain of human Smoothened receptor (Q99835 28-787): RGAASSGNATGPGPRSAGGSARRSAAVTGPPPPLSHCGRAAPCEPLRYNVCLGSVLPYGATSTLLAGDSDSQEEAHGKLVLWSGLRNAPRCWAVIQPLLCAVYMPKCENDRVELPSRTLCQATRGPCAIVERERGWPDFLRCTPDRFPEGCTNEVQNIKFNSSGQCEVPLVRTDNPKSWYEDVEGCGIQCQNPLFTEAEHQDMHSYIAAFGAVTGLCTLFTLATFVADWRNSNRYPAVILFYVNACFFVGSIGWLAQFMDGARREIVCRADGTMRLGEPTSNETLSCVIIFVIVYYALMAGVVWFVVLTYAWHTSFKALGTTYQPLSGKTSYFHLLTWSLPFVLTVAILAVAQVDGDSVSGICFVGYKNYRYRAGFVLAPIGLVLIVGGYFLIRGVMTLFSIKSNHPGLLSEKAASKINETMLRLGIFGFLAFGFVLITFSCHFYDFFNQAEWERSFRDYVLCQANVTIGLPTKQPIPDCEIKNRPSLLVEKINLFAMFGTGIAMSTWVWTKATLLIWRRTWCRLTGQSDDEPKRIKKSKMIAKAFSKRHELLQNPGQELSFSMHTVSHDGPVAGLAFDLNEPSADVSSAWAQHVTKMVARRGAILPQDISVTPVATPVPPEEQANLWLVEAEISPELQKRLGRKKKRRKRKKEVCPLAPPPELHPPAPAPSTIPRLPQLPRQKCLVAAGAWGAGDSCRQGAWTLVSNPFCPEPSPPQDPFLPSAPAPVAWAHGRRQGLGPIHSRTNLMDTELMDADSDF
Text: A Smo binding assay was developed using radio-labeled smoothened agonist for compound competition. Table 9 lists the IC50 for displacement of a small molecule agonist of Smoothened determined in a filter binding format for the mouse and human Smoothened receptor.

[3] = test system: Gli-luciferase activity; experiment: Reporter gene assay (RGA) in TMHh12 cells, antagonism of Gli-luciferase activity in the presence of a Smo agonist; type: cell-based
Description: Activity of the compounds was evaluated using a reporter gene assay (RGA) in TMHh12 cells.

[4] = 25 nM small molecule Smo agonist, read-out: RGA (25 nM Smo agonist) IC50
[5] = read-out: RGA (1 nM Smo agonist) IC50, 1 nM small molecule Smo agonist

Chain of mouse Smoothened receptor (P56726 33-793): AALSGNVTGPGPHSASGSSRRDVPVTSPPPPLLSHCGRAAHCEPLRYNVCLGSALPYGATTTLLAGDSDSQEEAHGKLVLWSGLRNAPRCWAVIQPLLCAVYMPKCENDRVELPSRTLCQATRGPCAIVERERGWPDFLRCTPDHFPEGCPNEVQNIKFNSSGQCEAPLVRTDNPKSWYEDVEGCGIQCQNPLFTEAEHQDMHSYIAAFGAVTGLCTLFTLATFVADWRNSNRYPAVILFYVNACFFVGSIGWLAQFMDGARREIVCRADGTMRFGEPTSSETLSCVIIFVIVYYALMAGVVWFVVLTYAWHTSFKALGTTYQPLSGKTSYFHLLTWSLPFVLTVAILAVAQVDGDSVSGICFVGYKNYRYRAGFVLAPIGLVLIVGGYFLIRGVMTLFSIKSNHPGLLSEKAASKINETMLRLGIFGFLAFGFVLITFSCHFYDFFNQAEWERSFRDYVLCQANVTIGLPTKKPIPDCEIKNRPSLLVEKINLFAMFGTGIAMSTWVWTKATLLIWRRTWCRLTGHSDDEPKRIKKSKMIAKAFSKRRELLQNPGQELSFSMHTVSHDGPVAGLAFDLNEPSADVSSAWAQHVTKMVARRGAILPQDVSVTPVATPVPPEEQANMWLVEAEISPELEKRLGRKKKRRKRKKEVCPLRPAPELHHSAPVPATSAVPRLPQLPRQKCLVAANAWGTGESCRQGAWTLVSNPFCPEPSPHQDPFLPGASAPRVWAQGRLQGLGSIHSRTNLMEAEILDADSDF

| Compound | IC50 [1] [µM] | IC50 [2] [µM] | IC50 [3, 4] [µM] | IC50 [3, 5] [µM] |
| --- | --- | --- | --- | --- |
| N#Cc1ccc(N2CCC(c3cn(Cc4ccccc4)c4ccccc34)CC2)nc1 [Example 100] | 0.1 to 1 | 0.1 to 1 | 1 to 10 | 0.1 to 1 |
| O=C(c1cccc(F)c1)N1CCC(c2cn(Cc3ccc(F)cc3)c3ccccc23)CC1 [Example 101] | 0.1 to 1 | 0.1 to 1 | 10 to 40 | 0.1 to 1 |
| N#Cc1ccc(C(=O)N2CCC(c3cn(Cc4ccc(F)cc4)c4ccccc34)CC2)cc1 [Example 102] | 0.1 to 1 | 0.1 to 1 |  | 0.1 to 1 |
| N#Cc1cccc(C(=O)N2CCC(c3cn(Cc4ccccc4)c4ccccc34)CC2)c1 [Example 103] | 1 to 10 | 1 to 10 | 1 to 10 | 1 to 10 |
| O=C(c1ccc(C(F)(F)F)cc1)N1CCC(c2cn(Cc3ccc(F)cc3)c3ccccc23)CC1 [Example 104] | 1 to 10 | 1 to 10 | 10 to 40 | 1 to 10 |
| O=C(c1ccc(C(F)(F)F)cc1)N1CCC(c2cn(Cc3ccccc3)c3ccccc23)CC1 [Example 105] | 1 to 10 | 1 to 10 | 10 to 40 | 1 to 10 |
| c1ccc(Cc2nnc(N3CCN(c4ccccc4)CC3)c3ccccc23)cc1 [Example 106] | 1 to 10 | 1 to 10 | 1 to 10 | 0.1 to 1 |
| CP(C)(=O)c1ccc(N2CCN(c3nnc(Cc4ccccc4)c4ccccc34)CC2)nc1 [Example 107] | 0.1 to 1 | 0.1 to 1 | 0.1 to 1 | < 0.1 |
| O=C1CN(c2nnc(Cc3ccccc3)c3ccccc23)CCN1c1ccccc1 [Example 108] | 0.1 to 1 | 0.1 to 1 | 1 to 10 | 0.1 to 1 |
| OC(c1ccc(N2CCN(c3nnc(Cc4ccccc4)c4ccccc34)CC2)nc1)C(F)(F)F (stereo not drawn) [Example 109] | < 0.1 | < 0.1 | 0.1 to 1 | < 0.1 |
| OC(c1ccc(N2CCN(c3nnc(Cc4ccccc4)c4ccccc34)CC2)nc1)(C(F)(F)F)C(F)(F)F [Example 110] | < 0.1 | < 0.1 | < 0.1 | < 0.1 |
| OC1(c2ccc(N3CCN(c4nnc(Cc5ccccc5)c5ccccc45)CC3)nc2)COC1 [Example 111] | < 0.1 | 0.1 to 1 | 0.1 to 1 | < 0.1 |
| FC(F)(F)c1c[nH]c(C2CCN(c3nnc(Cc4ccccc4)c4ccccc34)CC2)n1 [Example 112] | < 0.1 | 0.1 to 1 | 0.1 to 1 | < 0.1 |
| c1ccc(Cc2nnc(N3CCC(c4c[nH]c5ccccc45)CC3)c3ccccc23)cc1 [Example 113] | 0.1 to 1 | 0.1 to 1 | 1 to 10 | 0.1 to 1 |
| c1ccc(Cc2nnc(N3CCC(c4nc5ccccc5[nH]4)CC3)c3ccccc23)cc1 [Example 114] | < 0.1 | < 0.1 | 0.1 to 1 | < 0.1 |
| COC(=O)c1ccc(C2CCN(c3nnc(Cc4ccccc4)c4ccccc34)CC2)cc1 [Example 115] | 1 to 10 | 1 to 10 | 1 to 10 | 1 to 10 |
| N#Cc1ccc(C2CCN(c3nnc(Cc4ccccc4)c4ccccc34)CC2)cc1 [Example 116] | 1 to 10 | 1 to 10 | 1 to 10 | 1 to 10 |
| C[C@H]1CN(c2ccc(C#N)cn2)CCN1c1nnc(Cc2ccccc2)c2ccccc12 [Example 117] | < 0.1 | < 0.1 | 0.1 to 1 | < 0.1 |
| C[C@@H]1CN(c2ccc(C#N)cn2)CCN1c1nnc(Cc2ccccc2)c2ccccc12 [Example 118] | 0.1 to 1 | 0.1 to 1 | 1 to 10 | 0.1 to 1 |
| C[C@@H]1CN(c2nnc(Cc3ccccc3)c3ccccc23)[C@@H](C)CN1c1ccc(C#N)cn1 [Example 119] | 0.1 to 1 | 0.1 to 1 | 1 to 10 | 0.1 to 1 |
| CC(C)(N)c1ccc(N2CCN(c3nnc(Cc4ccccc4)c4ccccc34)CC2)nc1 [Example 120, 2-(6-(4-(4-Benzylphthalazin-1-yl)piperazin-1-yl)pyridin-3-yl)propan-2-amine] | < 0.1 | < 0.1 | < 0.1 | < 0.1 |
| COCC(=O)NC(C)(C)c1ccc(N2CCN(c3nnc(Cc4ccccc4)c4ccccc34)CC2)nc1 [Example 121, N-(2-(6-(4-(4-Benzylphthalazin-1-yl)piperazin-1-yl)pyridin-3-yl)propan-2-yl)-2-methoxyacetamide] | < 0.1 | < 0.1 | < 0.1 | < 0.1 |

| Compound | IC50 [1] [µM] | IC50 [2] [µM] | IC50 [3, 4] [µM] | IC50 [3, 5] [µM] |
| --- | --- | --- | --- | --- |
| COCCC(=O)NC(C)(C)c1ccc(N2CCN(c3nnc(Cc4ccccc4)c4ccccc34)CC2)nc1 [Example 122] | < 0.1 | 0.1 to 1 | 0.1 to 1 | < 0.1 |
| CC(C)(NC(=O)OCc1ccccc1)c1ccc(N2CCN(c3nnc(Cc4ccccc4)c4ccccc34)CC2)nc1 [Example 123] | < 0.1 | < 0.1 | 0.1 to 1 | < 0.1 |
| CC(C)(O)c1ccc(C2CCN(c3nnc(Cc4ccccc4)c4ccccc34)CC2)cc1 [Example 124] | 0.1 to 1 | 0.1 to 1 | 1 to 10 | < 0.1 |
| NCc1ccc(C2CCN(c3nnc(Cc4ccccc4)c4ccccc34)CC2)cc1 [Example 125, 4-[1-(4-Benzyl-phthalazine-1-yl)-piperidine-4-yl]-benzylamine] | 0.1 to 1 | 1 to 10 | 1 to 10 | 0.1 to 1 |
| CC(=O)Nc1ccc(C2CCN(c3nnc(Cc4ccccc4)c4ccccc34)CC2)cc1 [Example 129] | 0.1 to 1 | 1 to 10 | 1 to 10 | 0.1 to 1 |
| Cc1nc(N2CCN(c3nnc(Cc4ccccc4)c4ccccc34)CC2)ccc1C#N [Example 130] | 1 to 10 | 1 to 10 | 1 to 10 | 0.1 to 1 |
| O=C1CCCN1c1ccc(N2CCN(c3nnc(Cc4ccccc4)c4ccccc34)CC2)nc1 [Example 131] | < 0.1 | < 0.1 | 0.1 to 1 | 0.1 to 1 |
| NS(=O)(=O)c1ccc(N2CCN(c3nnc(Cc4ccccc4)c4ccccc34)CC2)nc1 [Example 132] | < 0.1 | < 0.1 | 0.1 to 1 | < 0.1 |
| O=S(=O)(c1ccc(N2CCN(c3nnc(Cc4ccccc4)c4ccccc34)CC2)nc1)N1CCCC1 [Example 133] | 0.1 to 1 | 0.1 to 1 | 0.1 to 1 | < 0.1 |
| CC(=O)c1ccc(N2CCN(c3nnc(Cc4ccccc4)c4ccccc34)CC2)nc1 [Example 134] | < 0.1 | < 0.1 | < 0.1 | < 0.1 |
| OC1(c2ccc(N3CCN(c4nnc(Cc5ccccc5)c5ccccc45)CC3)nc2)CC1 [Example 135] | < 0.1 | < 0.1 | 0.1 to 1 | < 0.1 |
| COC(=O)c1cnc(N2CCN(c3nnc(Cc4ccccc4)c4ccccc34)CC2)cc1C(F)(F)F [Example 136] | < 0.1 | < 0.1 | 0.1 to 1 | < 0.1 |
| CCOC(=O)c1cnc(N2CCN(c3nnc(Cc4ccccc4)c4ccccc34)CC2)nc1C(F)(F)F [Example 137] | < 0.1 | < 0.1 | < 0.1 | < 0.1 |
| COC(=O)c1cnc(N2CCN(c3nnc(Cc4ccccc4)c4ccccc34)CC2)cn1 [Example 138] | < 0.1 | < 0.1 | 0.1 to 1 | < 0.1 |
| COC(=O)c1ccc(N2CCN(c3nnc(Cc4ccccc4)c4ccccc34)CC2)nn1 [Example 139] | < 0.1 | < 0.1 | 1 to 10 | 0.1 to 1 |
| C[C@@H]1CN(c2nnc(Cc3ccccc3)c3ccccc23)CCN1c1ccc(C#N)cn1 [Example 142, 6-[(R)-4-(4-Benzyl-phthalazin-1-yl)-2-methyl-piperazin-1-yl]-nicotinonitrile] | < 0.1 | < 0.1 | 0.1 to 1 | < 0.1 |
| C[C@H]1CN(c2nnc(Cc3ccccc3)c3ccccc23)CCN1c1ccc(C#N)cn1 [Example 143, 6-[(S)-4-(4-Benzyl-phthalazin-1-yl)-2-methyl-piperazin-1-yl]-nicotinonitrile] | < 0.1 | < 0.1 | 0.1 to 1 | < 0.1 |
| CCOC(=O)c1ccc(N2CCN(c3nnc(Cc4ccccc4)c4ccccc34)C[C@H]2C)nc1 [Example 144, 6-[(R)-4-(4-Benzyl-phthalazin-1-yl)-2-methyl-piperazin-1-yl]-nicotinic acid ethyl ester] | < 0.1 | < 0.1 | 0.1 to 1 | < 0.1 |
| CCOC(=O)c1cnc(N2CCN(c3nnc(Cc4ccccc4)c4ccccc34)C[C@H]2C(=O)OC)nc1C(F)(F)F [Example 147, 2-[(S)-4-(4-Benzyl-phthalazin-1-yl)-2-methoxycarbonyl-piperazin-1-yl]-4-trifluoromethyl-pyrimidine-5-carboxylic acid ethyl ester] | 0.1 to 1 | < 0.1 | 1 to 10 | 0.1 to 1 |
| CC(C)(O)c1cnc(N2CCN(c3nnc(Cc4ccccc4)c4ccccc34)CC2)cc1C(F)(F)F [Example 148] | < 0.1 | < 0.1 | < 0.1 | < 0.1 |
| CC(C)(O)c1cnc(N2CCN(c3nnc(Cc4ccccc4)c4ccccc34)CC2)nc1C(F)(F)F [Example 149] | < 0.1 | < 0.1 | < 0.1 | < 0.1 |
